Key:
Assay type in all cases: cell-based, human
TNF-α = experiment: ELISA analysis of TNF-α in APCC culture supernatants; conditions: n=3
Method: (§1) The levels of TNF-α and IFN-γ were elevated in the APCCs treated with anti-PD1. […] (FIG. 4B).
(§2) Cabozantinib (SelleckChem) was added at 10 μM to the APCCs.
(§3) To perform cytokine analysis on the APCCs and 2D tumor cultures, 50 μL supernatants were pipetted out of the culture vessel and centrifuged at 10,000 g for 10 minutes to remove cell debris. The supernatants were then analyzed by human TNF-α or IFN-γ kits (Tribioscience).

[1] = tested on: tumor cells within RCC derived APCCs; experiment: Tumor cell death within APCCs by time-lapse imaging; conditions: 24-hour time lapse, anti-PD1 5 μg/mL
Method: To evaluate the preservation of MDSC viability inside APCCs, initial tests were performed with renal cell carcinoma (RCC) primary tumors from patients. For MDSC study, the CD15+ cells were first isolated from dissociated patient tumor cells via magnetic microbeads, which consist of tumor infiltrating neutrophils including immunosuppressive polymorphonuclear myeloid derived suppressor cells (PMN-MDSCs). The CD15+ cells were pre-labelled with DiL membrane dyes (shown as yellow). T cells were isolated via a 1:1 mixture of CD4 and CD8 microbeads and pre-labeled the T cells with DiO membrane dyes. The CD15+, CD4+, CD8+ depleted dissociated tumor cells were labeled with the blue CMAC cell tracker dye. Membrane impermeable cell nucleus staining NucRed dead 647 was added to indicate cell death. The cell death of the CD15+ cells was calculated by analyzing co-localization of Dil labeled MDSCs and NucRed cell death indicator dye over time-lapse imaging (FIG. 2A).
MDSC-targeting drugs alone and/or in combination with ICIs. […] The tumor cell death over a 24-hour time lapse was observed. […]
Digested tumor cells were equally divided into 3 tubes. […] Before acoustic assembly, 1 drop of NucRed Dead 647 ReadyProbes (Invitrogen) was added to 1 milliter of cell suspensions and left in medium to visualize cell death over time. […]

[2] = tested on: IFN-γ gene expression in CD4/CD8+ T cells; experiment: qRT-PCR of IFN-γ expression in CD4/CD8+ T cells isolated from APCCs; conditions: n=3
Method: as §2
(§4) For qRT-PCR analysis of the CD15+ cells and CD4/8+ T cells, CD15+ cells or CD4/8+ T cells were pre-labeled by CD15 or CD4-and-CD8 (1:1) magnetic beads for 15 minutes at 4° C. respectively before mixed with other tumor cells for acoustic assembly. The CD15+ cells or CD4/8+ T cells with the labeling beads were then assembled into APCCs. To analyze their gene expression profiles, the APCCs were digested by with cell recovery solution (Corning), and input onto MACS columns (Miltenyi) for positive magnetic separation to isolate pure CD15+ cells or T cells (CD4+ or CD8+). The purified CD15+ cells or CD4/8+ T cells were then lysed for RNA extraction by RNeasy Mini Kit (Qiagen), reverse transcribed to cDNA by High-Capacity cDNA Reverse Transcription Kit (Applied Biosystems), and analyzed using corresponding primer pairs (Table 2) and SYBR Green PCR Master Mix (Applied Biosystems). The samples were run on a StepOne Real Time PCR machine (Applied Biosystems) to quantify signals. The results were analyzed using AACt method for fold change analysis.

[3] = tested on: TNF-α gene expression in CD4/CD8+ T cells; experiment: qRT-PCR of TNF-α expression in CD4/CD8+ T cells isolated from APCCs; conditions: n=3
Method: as §2, §4

IFN-γ = experiment: ELISA analysis of IFN-γ in APCC culture supernatants; conditions: n=3
Method: as §1, §2, §3

[4] = APCCs without CD15+ cells, 24 hours post-treatment
[5] = T cells isolated from APCCs 24 hours post-treatment

Question: Pembrolizumab [anti-PD1] was tested. Which “TNF-α level in culture supernatant, APCCs without CD15+ cells” value (TNF-α; APCCs without CD15+ cells) did it give?
Answer: further elevated

Question: What about the “TNF-α level in culture supernatant” value (TNF-α; RCC APCCs, vs control) of the same substance?
Answer: elevated

Question: What about the “increase in tumor cell death as compared to untreated control” value ([1]; APCCs from 3 RCC patient primary tumors, Cabozantinib 10 μM) of the same substance?
Answer: about 17.0%±9.4%

Question: What about the “increase in tumor cell death as compared to untreated control, APCCs without CD15+ cells” value ([1]; APCCs without CD15+ cells (MDSCs removal)) of the same substance?
Answer: about 40.9%±9.4%

Question: And the “IFN-γ gene expression in CD4/CD8+ T cells, APCCs without CD15+ cells” value [2, 4]?
Answer: highest

Question: What about the “IFN-γ gene expression in CD4/CD8+ T cells” value [2, 5] of the same substance?
Answer: enhanced

Question: And the “TNF-α gene expression in CD4/CD8+ T cells, APCCs without CD15+ cells” value [3, 4]?
Answer: highest

Question: And the “TNF-α gene expression in CD4/CD8+ T cells” value [3, 5]?
Answer: enhanced

Question: And the “IFN-γ level in culture supernatant, APCCs without CD15+ cells” value (IFN-γ; APCCs without CD15+ cells)?
Answer: further elevated

Question: What about the “IFN-γ level in culture supernatant” value (IFN-γ; RCC APCCs, vs control) of the same substance?
Answer: elevated

Reference: patent US20240425808A1, “A METHOD FOR RAPID GENERATION OF 3D ORGANOTYPIC CELL CLUSTERS” (THE TRUSTEES OF INDIANA UNIVERSITY, priority 2022, published 2024)
